# According to patent publication US20120207763A1, “PYRROLOPYRIMIDINE COMPOUNDS AND THEIR USES” (ASTEX THERAPEUTICS LIMITED, priority 2006, published 2012):
# Target: T1, JAK-3 (Homo sapiens, UniProt P52333)
# T1 construct: GST fusion constructs of the kinase domains of both enzymes are used; GST
# Test: JAK LANCE enzymatic assay (JAK-3)
# Assay type: biochemical
# Details: Table A; read-out: Jak-3/ IC50
# Excerpt: Binding of cytokines and certain growth factors to their respective receptors trigger activation of Janus kinases, which phosphorylate members of the STAT family. Phosphorylated STAT molecules dimerize and migrate to the nucleus where they bind to DNA and initiate transcription of responsive genes. Inhibitors of pathways downstream of cytokine/growth factor receptors have therapeutic potential for several indications. An enzymatic assay for JAK-3 and JAK-2 has been developed to identify T-cell selective inhibitors. GST fusion constructs of the kinase domains of both enzymes are used and a biotinylated, tyrosine containing peptide serves as substrate. Phosphorylation of this peptide by the respective kinase is quantified with an europium-labeled anti-phosphotyrosine antibody (Eu-PT66) as energy donor and a streptavidin-allophycocyanine conjugate (SA-APC) as energy acceptor. The assay has been established in a 384 well format.
# In the JAK LANCE™ assay, a biotinylated peptide is incubated together with compounds and ATP in buffer. The phosphorylation reaction starts after addition of JAK kinase. After incubation at RT the reaction is stopped with EDTA and the product detected by addition Streptavidin-Allophycocyanin and Europium-labeled antiphosphotyrosine antibody. The signal is measured using an EnVision Reader. Exc: 320 nm, Em, Donor: 615 nm and Em, Acceptor: 665 nm in time resolved fashion with a delay of […].
# T1 sequence (P52333 822-1111 limits assumed): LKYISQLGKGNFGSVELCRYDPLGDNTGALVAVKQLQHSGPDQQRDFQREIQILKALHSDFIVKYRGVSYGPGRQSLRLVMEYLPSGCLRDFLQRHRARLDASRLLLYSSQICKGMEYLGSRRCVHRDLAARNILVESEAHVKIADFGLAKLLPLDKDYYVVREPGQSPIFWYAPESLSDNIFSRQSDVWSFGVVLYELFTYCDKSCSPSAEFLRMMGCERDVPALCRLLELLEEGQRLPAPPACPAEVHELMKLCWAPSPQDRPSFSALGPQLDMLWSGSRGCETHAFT
row,Compound,IC50
1,CN1CCN(c2ccc(Nc3ncc4c(n3)NC(=O)C4)cc2)CC1,≥ 100 nM
2,O=C1Cc2cnc(Nc3ccc(C(=O)N4CCOCC4)cc3)nc2N1,≥ 100 nM
3,O=C1Cc2cnc(Nc3ccc(N4CCOCC4)cc3)nc2N1,≥ 100 nM
4,CCC(CC)N1C(=O)Cc2cnc(Nc3cc(C(=O)N4CCOCC4)ccc3F)nc21,≥ 100 nM
5,CCC(CC)N1C(=O)Cc2cnc(Nc3cccc(C(=O)N4CCOCC4)c3)nc21,≥ 100 nM
6,O=C1Cc2cnc(Nc3ccc(N4CCOCC4)cc3)nc2N1C1CC1,≥ 100 nM
7,O=C(c1ccc(Nc2ncc3c(n2)N(C2CC2)C(=O)C3)cc1)N1CCOCC1,≥ 100 nM
8,CN1CCN(C(=O)c2cccc(Nc3ncc4c(n3)N(C3CCCCC3)C(=O)C4)c2)CC1,≥ 100 nM
9,CN1CCN(c2ccc(Nc3ncc4c(n3)N(C3CCCC3)C(=O)C4)cc2)CC1,≥ 100 nM
10,O=C1Cc2cnc(Nc3ccc(N4CCOCC4)cc3)nc2N1C1CCCC1,≥ 100 nM
11,CCC(CC)N1C(=O)Cc2cnc(Nc3ccc(N4CCN(C)CC4)nc3)nc21,≥ 100 nM
12,CCC(CC)N1C(=O)Cc2cnc(Nc3ccc(C(=O)N4CCN(C)CC4)cc3)nc21,≥ 100 nM
13,CCC(CC)N1C(=O)Cc2cnc(Nc3cc(NC(=O)c4ccncc4)ccc3OC)nc21,≥ 100 nM
14,CCC(CC)N1C(=O)Cc2cnc(Nc3cc(NC(=O)c4ccncc4)ccc3F)nc21,≥ 100 nM
15,CCC(CC)N1C(=O)Cc2cnc(Nc3ccc(NS(=O)(=O)c4ccc(C)cc4)cc3)nc21,≥ 100 nM
16,CCC(CC)N1C(=O)Cc2cnc(Nc3ccc(-n4cncn4)cc3)nc21,≥ 100 nM
17,CCC(CC)N1C(=O)Cc2cnc(Nc3cccc(-c4nncn4C)c3)nc21,≥ 100 nM
18,CCC(CC)N1C(=O)Cc2cnc(Cl)nc21,≥ 100 nM
19,CCC(CC)N1C(=O)Cc2cnc(Nc3ccc(N4CCC(OC(=O)c5ccccc5)CC4)cc3)nc21,≥ 100 nM
20,CCC(CC)N1C(=O)Cc2cnc(Nc3ccc(S(=O)(=O)Nc4ccccn4)cc3)nc21,≥ 100 nM
21,CCC(CC)N1C(=O)Cc2cnc(Nc3ccc4[nH]ncc4c3)nc21,≥ 100 nM
22,CCC(CC)N1C(=O)Cc2cnc(Nc3ccc(S(=O)(=O)N4CCN(C)CC4)cc3)nc21,≥ 100 nM

row,Compound,IC50
1,CCC(CC)n1c(=O)[nH]c2cnc(Nc3ccc(N4CCN(C(C)=O)CC4)cc3)nc21,≥ 100 nM
2,CCC(CC)n1cnc2cnc(Nc3ccc(N4CCN(C(C)=O)CC4)cc3)nc21,≥ 100 nM
3,CCC(CC)N1C(=O)Cc2cnc(Nc3cccc(OCCN4CCOCC4)c3)nc21,≥ 100 nM
4,CCC(CC)N1C(=O)Cc2cnc(Nc3ccc(NC(=O)c4cccnc4)cc3)nc21,≥ 100 nM
5,CCC(c1ccccc1)N1C(=O)Cc2cnc(Nc3ccc(N4CCN(C(C)=O)CC4)cc3)nc21 (centres unmarked),≥ 100 nM
6,CCC(c1ccccc1)N1C(=O)Cc2cnc(Nc3cccc(OCCn4ccnc4)c3)nc21 (centres unmarked),≥ 100 nM
7,CCC(CC)N1C(=O)Cc2cnc(Nc3cccc(OCCN4CCN(C)CC4)c3)nc21,≥ 100 nM
8,CCC(CC)N1C(=O)Cc2cnc(Nc3cccc(OCCN(CC)CC)c3)nc21,≥ 100 nM
9,CCC(CC)N1C(=O)Cc2cnc(Nc3cccc(OCCn4ccnc4)c3)nc21,≥ 100 nM
10,CCC(c1ccccc1)N1C(=O)Cc2cnc(Nc3cccc(OCCN4CCCC4)c3)nc21 (centres unmarked),≥ 100 nM
11,CCC(CC)n1cnc2cnc(Nc3ccc(N4CCN(C)CC4)cc3)nc21,≥ 100 nM
12,CCC(CC)N1C(=O)Cc2cnc(Nc3ccc(NC(=O)c4ccncc4)cc3)nc21,≥ 100 nM
13,CCC(CC)N1C(=O)Cc2cnc(Nc3ccc(C(=O)NC(C)C)cc3)nc21,≥ 100 nM
14,CCC(CC)N1C(=O)Cc2cnc(Nc3ccc(C(=O)NC(C)(C)C)cc3)nc21,≥ 100 nM
15,CCC(CC)N1C(=O)Cc2cnc(Nc3ccc(C(=O)NC)cc3)nc21,≥ 100 nM
16,CCC(CC)N1C(=O)Cc2cnc(Nc3ccc(C(=O)N(C)C)cc3)nc21,≥ 100 nM
17,CCC(CC)N1C(=O)Cc2cnc(Nc3ccc(C(=O)NCCN(C)C)cc3)nc21,≥ 100 nM
18,CCC(CC)N1C(=O)Cc2cnc(Nc3ccc(C(=O)NCCN4CCCCC4)cc3)nc21,≥ 100 nM
19,CCC(CC)N1C(=O)Cc2cnc(Nc3ccc(C(=O)NCCN4CCN(C)CC4)cc3)nc21,≥ 100 nM
20,CCC(CC)N1C(=O)Cc2cnc(Nc3cccc(N(C)CCN4CCCC4)c3)nc21,≥ 100 nM
21,CCC(CC)N1C(=O)Cc2cnc(Nc3ccc(N4CCN(C)CC4)cn3)nc21,≥ 100 nM
22,CCC(CC)N1C(=O)Cc2cnc(Nc3ccc(N4CCN(C(C)=O)CC4)cn3)nc21,≥ 100 nM

# Next, values leading:
row,IC50,Compound
1,≤ 100 nM,CCC(CC)N1C(=O)Cc2cnc(Nc3ccc(N4CCN(C)CC4)cc3)nc21
2,≤ 100 nM,CCC(CC)N1C(=O)Cc2cnc(Nc3ccc(N4CCOCC4)cc3)nc21
3,≥ 100 nM,CCC(CC)N1C(=O)Cc2cnc(Nc3cccc(C(=O)N4CCN(C)CC4)c3)nc21
4,≥ 100 nM,CCC(CC)N1C(=O)Cc2cnc(Nc3ccc(C(=O)N4CCOCC4)cc3)nc21
5,≥ 100 nM,CCC(CC)N1C(=O)Cc2cnc(Nc3ccc(NC(C)=O)cc3)nc21
6,≥ 100 nM,CCN1C(=O)Cc2cnc(Nc3ccc(N4CCN(C)CC4)cc3)nc21
7,≤ 100 nM,CCC(CC)N1C(=O)Cc2cnc(Nc3ccc(N4CCN(C(C)=O)CC4)cc3)nc21
8,≥ 100 nM,CCC(CC)N1C(=O)Cc2cnc(Nc3cc(C(=O)N4CCOCC4)ccc3OC)nc21
9,≥ 100 nM,CN1CCN(c2ccc(Nc3ncc4c(n3)N(C3CC3)C(=O)C4)cc2)CC1
10,≥ 100 nM,CN1CCN(C(=O)c2cccc(Nc3ncc4c(n3)N(C3CC3)C(=O)C4)c2)CC1
11,≤ 100 nM,CN1CCN(c2ccc(Nc3ncc4c(n3)N(C3CCCCC3)C(=O)C4)cc2)CC1
12,≤ 100 nM,CCC(CC)N1C(=O)Cc2cnc(Nc3ccc(N4CCC(N5CCN(C)CC5)CC4)cc3)nc21
13,≤ 100 nM,CCC(CC)N1C(=O)Cc2cnc(Nc3ccc(N4CCN(C)CC4)c(F)c3)nc21
14,≤ 100 nM,CCC(CC)N1C(=O)Cc2cnc(Nc3cccc(NC(=O)c4ccncc4)c3)nc21
15,≤ 100 nM,CCC(CC)N1C(=O)Cc2cnc(Nc3ccc(N4CCC(O)CC4)cc3)nc21
16,≤ 100 nM,CC(=O)N1CCN(c2ccc(Nc3ncc(Br)c(Nc4ccccn4)n3)cc2)CC1
17,≤ 100 nM,CCC(CC)N1C(=O)Cc2cnc(Nc3ccc(OCCN4CCCC4)cc3)nc21
18,≤ 100 nM,CCC(CC)N1C(=O)Cc2cnc(Nc3cccc(OCCN4CCCC4)c3)nc21
19,≤ 100 nM,CCC(CC)N1C(=O)Cc2cnc(Nc3ccc(N4CCN(S(C)(=O)=O)CC4)cc3)nc21
20,≤ 100 nM,CCC(CC)n1c(=O)n(C)c2cnc(Nc3ccc(N4CCN(C(C)=O)CC4)cc3)nc21
21,≤ 100 nM,CCC(CC)n1c(=O)n(C)c2cnc(Nc3ccc(N4CCN(C)CC4)cc3)nc21
22,≤ 100 nM,CCC(c1ccccc1)n1ccc2cnc(Nc3ccc(N4CCN(C(C)=O)CC4)cc3)nc21 (centres unmarked)
23,≤ 100 nM,CCC(CC)n1c(=O)[nH]c2cnc(Nc3ccc(N4CCN(C)CC4)cc3)nc21
24,≤ 100 nM,CCC(CC)N1C(=O)Cc2cnc(Nc3cccc(NCCN4CCCC4)c3)nc21
25,≤ 100 nM,CCC(CC)N1C(=O)Cc2cnc(Nc3cccc(NCCN4CCN(C)CC4)c3)nc21
26,≤ 100 nM,CCC(CC)N1C(=O)Cc2cnc(Nc3ccc(C(=O)NC4CCCC4)cc3)nc21
27,≤ 100 nM,CCNC(=O)c1ccc(Nc2ncc3c(n2)N(C(CC)CC)C(=O)C3)cc1
28,≤ 100 nM,CCC(CC)n1ccc2cnc(Nc3cccc(OCCN4CCCC4)c3)nc21
29,≤ 100 nM,CCC(CC)n1ccc2cnc(Nc3ccc(N4CCN(C)CC4)cc3)nc21
30,≤ 100 nM,CCC(CC)n1ccc2cnc(Nc3cccc(NC(=O)c4ccncc4)c3)nc21
